These are literature values, as cited in EP3731816B1, “SOLID ORAL PHARMACEUTICAL COMPOSITIONS COMPRISING APIXABAN” (Sanovel Ilac Sanayi ve Ticaret A.S., priority 2017, dated 2019).

Converted amounts (≈) assume the structure as drawn.

For data set [1] the following is noted: at 24 °C.
The conditions of data set [2]: single 10 mg dose.

In the case of `COc1ccc(-n2nc(C(N)=O)c3c2C(=O)N(c2ccc(N4CCCCC4=O)cc2)CC3)cc1` [Apixaban, 1-(4-methoxyphenyl)-7-oxo-6-[4-(2-oxopiperidin-1-yl)phenyl]-4,5,6,7-tetrahydro-1H-pyrazolo[3,4-c]pyridine-3-carboxamide], the solubility in water in data set [1] was 0.028 mg/mL (≈ 60.9 µM). The oral bioavailability entry in data set [2] is listed as “about 50%”.
